In brackets after ≈: the same amount, converted by molar mass.
Legend:
Candida albicans [1] = test: Antifungal activity against Candida albicans ATCC 76615 assessed as fungal growth inhibition incubated for 24 hrs by CLSI protocol based broth microdilution method; assay type: functional
Cryptococcus neoformans [2] = test: Antifungal activity against Cryptococcus neoformans ATCC 208821 assessed as fungal growth inhibition incubated for 24 hrs by CLSI protocol based broth microdilution method; assay type: functional
Aspergillus fumigatus [3] = test: Antifungal activity against Aspergillus fumigatus GIMCC 3.19 assessed as fungal growth inhibition incubated for 24 hrs by CLSI protocol based broth microdilution method; assay type: functional
Aspergillus flavus [4] = test: Antifungal activity against Aspergillus flavus ATCC 16870 assessed as fungal growth inhibition incubated for 24 hrs by CLSI protocol based broth microdilution method; assay type: functional
Candida tropicalis = test: Inhibition of Candida tropicalis ATCC 750 chitin synthase using UDP-GlcNAc as substrate at 300 ug/ml incubated for 1 hrs by absorbance based assay relative to control; details: dose 300.0 µg/ml
[5] = Inhibition of Candida tropicalis ATCC 750 chitin synthase using UDP-GlcNAc as substrate incubated for 1 hrs by absorbance based assay
Candida albicans [6] = test: Synergistic antifungal activity against Candida albicans ATCC 76615 assessed as fungal growth inhibition incubated for 24 hrs in the presence of fluconazole by broth dilution based checkerboard method; assay type: functional
Cryptococcus neoformans [7] = test: Synergistic antifungal activity against Cryptococcus neoformans ATCC 208821 assessed as fungal growth inhibition incubated for 24 hrs in the presence of fluconazole by broth dilution based checkerboard method; assay type: functional
Aspergillus flavus [8] = test: Synergistic antifungal activity against Aspergillus flavus ATCC 16870 assessed as fungal growth inhibition incubated for 24 hrs in the presence of fluconazole by broth dilution based checkerboard method; assay type: functional
Candida albicans [9] = test: Synergistic antifungal activity against Candida albicans ATCC 76615 assessed as fractional inhibitory concentration index incubated for 24 hrs in the presence of fluconazole by broth dilution based checkerboard method; assay type: functional
Aspergillus fumigatus [10] = test: Synergistic antifungal activity against Aspergillus fumigatus GIMCC 3.19 assessed as fractional inhibitory concentration index incubated for 24 hrs in the presence of fluconazole by broth dilution based checkerboard method; assay type: functional
Aspergillus fumigatus [11] = test: Synergistic antifungal activity against Aspergillus fumigatus GIMCC 3.19 assessed as fungal growth inhibition incubated for 24 hrs in the presence of fluconazole by broth dilution based checkerboard method; assay type: functional
Aspergillus flavus [12] = test: Synergistic antifungal activity against Aspergillus flavus ATCC 16870 assessed as fractional inhibitory concentration index incubated for 24 hrs in the presence of fluconazole by broth dilution based checkerboard method; assay type: functional
Cryptococcus neoformans [13] = test: Synergistic antifungal activity against Cryptococcus neoformans ATCC 208821 assessed as fractional inhibitory concentration index incubated for 24 hrs in the presence of fluconazole by broth dilution based checkerboard method; assay type: functional

| MIC (Candida albicans [1]) | MIC (Cryptococcus neoformans [2]) | MIC (Aspergillus fumigatus [3]) | MIC (Aspergillus flavus [4]) | inhibition (Candida tropicalis) | IC50 [5] | MIC (Candida albicans [6]) | MIC (Cryptococcus neoformans [7]) | MIC (Aspergillus flavus [8]) | MIC (Aspergillus fumigatus [11]) | Compound | fractional inhibitory concentration index (FICI) (Candida albicans [9]) | fractional inhibitory concentration index (FICI) (Aspergillus fumigatus [10]) | fractional inhibitory concentration index (FICI) (Aspergillus flavus [12]) | fractional inhibitory concentration index (FICI) (Cryptococcus neoformans [13]) |
| --- | --- | --- | --- | --- | --- | --- | --- | --- | --- | --- | --- | --- | --- | --- |
| 512 µg/mL (≈ 1120 µM) | > 512 µg/mL | 512 µg/mL (≈ 1120 µM) | 512 µg/mL (≈ 1120 µM) | 41% | – | – | – | – | – | COc1ccc2c(c1)C1(CCN(C(=O)C(O)C(O)C(=O)Nc3ccccc3)CC1)OC(=O)N2 (stereo not drawn) | – | – | – | – |
| > 512 µg/mL | 256 µg/mL (≈ 565 µM) | 256 µg/mL (≈ 565 µM) | > 512 µg/mL | 17% | – | – | – | – | – | COc1ccc(NC(=O)CCC(=O)N2CCC3(CC2)OC(=O)Nc2ccc(OC)cc23)cc1 | – | – | – | – |
| > 512 µg/mL | > 512 µg/mL | 256 µg/mL (≈ 545 µM) | > 512 µg/mL | 43% | – | – | – | – | – | COc1ccc2c(c1)C1(CCN(C(=O)C(O)C(O)C(=O)Nc3ccc(C)cc3)CC1)OC(=O)N2 (stereo not drawn) | – | – | – | – |
| 256 µg/mL (≈ 588 µM) | > 512 µg/mL | > 512 µg/mL | 512 µg/mL (≈ 1180 µM) | 14% | – | – | – | – | – | COc1ccc2c(c1)C1(CCN(C(=O)/C=C/C(=O)Nc3ccccc3C)CC1)OC(=O)N2 | – | – | – | – |
| > 512 µg/mL | 512 µg/mL (≈ 958 µM) | > 512 µg/mL | 512 µg/mL (≈ 958 µM) | 43% | – | – | – | – | – | COc1ccc2c(c1)C1(CCN(C(=O)C(O)C(O)C(=O)Nc3ccc(Br)cc3)CC1)OC(=O)N2 (stereo not drawn) | – | – | – | – |
| > 512 µg/mL | > 512 µg/mL | > 512 µg/mL | 256 µg/mL (≈ 605 µM) | 6% | – | – | – | – | – | COc1ccc2c(c1)C1(CCN(C(=O)CCC(=O)Nc3ccccc3)CC1)OC(=O)N2 | – | – | – | – |
| 256 µg/mL (≈ 543 µM) | 256 µg/mL (≈ 543 µM) | > 512 µg/mL | > 512 µg/mL | 46% | – | – | – | – | – | COc1ccc2c(c1)C1(CCN(C(=O)/C=C/C(=O)Nc3cccc4ccccc34)CC1)OC(=O)N2 | – | – | – | – |
| 512 µg/mL (≈ 1120 µM) | 512 µg/mL (≈ 1120 µM) | 128 µg/mL (≈ 281 µM) | 256 µg/mL (≈ 562 µM) | 51% | – | – | – | – | – | COc1ccc2c(c1)C1(CCN(C(=O)/C=C/C(=O)Nc3ccc(Cl)cc3)CC1)OC(=O)N2 | – | – | – | – |
| 512 µg/mL (≈ 1210 µM) | > 512 µg/mL | > 512 µg/mL | > 512 µg/mL | 13% | – | – | – | – | – | COc1ccc2c(c1)C1(CCN(C(=O)CC(=O)Nc3ccc(C)cc3)CC1)OC(=O)N2 | – | – | – | – |
| 256 µg/mL (≈ 567 µM) | 64 µg/mL (≈ 142 µM) | 128 µg/mL (≈ 284 µM) | 128 µg/mL (≈ 284 µM) | 37% | – | – | – | – | – | COc1cccc(NC(=O)/C=C/C(=O)N2CCC3(CC2)OC(=O)Nc2ccc(OC)cc23)c1 | – | – | – | – |
| 256 µg/mL (≈ 459 µM) | > 512 µg/mL | > 512 µg/mL | > 512 µg/mL | 30% | – | – | – | – | – | COc1ccc2c(c1)C1(CCN(C(=O)/C=C/C(=O)Nc3ccc(C(F)(F)F)cc3C(F)(F)F)CC1)OC(=O)N2 | – | – | – | – |
| 512 µg/mL (≈ 1250 µM) | 256 µg/mL (≈ 625 µM) | > 512 µg/mL | 256 µg/mL (≈ 625 µM) | 16% | – | – | – | – | – | COc1ccc2c(c1)C1(CCN(C(=O)CC(=O)Nc3ccccc3)CC1)OC(=O)N2 | – | – | – | – |
| > 512 µg/mL | > 512 µg/mL | 256 µg/mL (≈ 527 µM) | 512 µg/mL (≈ 1050 µM) | 52% | – | – | – | – | – | COc1ccc(NC(=O)C(O)C(O)C(=O)N2CCC3(CC2)OC(=O)Nc2ccc(OC)cc23)cc1 (stereo not drawn) | – | – | – | – |
| 128 µg/mL (≈ 294 µM) | 256 µg/mL (≈ 588 µM) | 256 µg/mL (≈ 588 µM) | 256 µg/mL (≈ 588 µM) | 65% | 370 µM | – | – | – | – | COc1ccc2c(c1)C1(CCN(C(=O)/C=C/C(=O)Nc3ccc(C)cc3)CC1)OC(=O)N2 | – | – | – | – |
| 512 µg/mL (≈ 1050 µM) | 256 µg/mL (≈ 523 µM) | > 512 µg/mL | 128 µg/mL (≈ 262 µM) | 15% | – | – | – | – | – | COc1ccc2c(c1)C1(CCN(C(=O)/C=C/C(=O)Nc3ccc(C(F)(F)F)cc3)CC1)OC(=O)N2 | – | – | – | – |
| 64 µg/mL (≈ 142 µM) | 256 µg/mL (≈ 567 µM) | 128 µg/mL (≈ 284 µM) | 128 µg/mL (≈ 284 µM) | 60% | 330 µM | – | – | – | – | COc1ccc2c(c1)C1(CCN(C(=O)/C=C/C(=O)Nc3ccccc3OC)CC1)OC(=O)N2 | – | – | – | – |
| 128 µg/mL (≈ 274 µM) | 256 µg/mL (≈ 549 µM) | 107 µg/mL (≈ 229 µM) | 256 µg/mL (≈ 549 µM) | 34% | – | – | – | – | – | COc1ccc2c(c1)C1(CCN(C(=O)/C=C/C(=O)Nc3cccc([N+](=O)[O-])c3)CC1)OC(=O)N2 | – | – | – | – |
| 107 µg/mL (≈ 212 µM) | 256 µg/mL (≈ 510 µM) | 512 µg/mL (≈ 1020 µM) | 256 µg/mL (≈ 510 µM) | 23% | – | – | – | – | – | COc1ccc2c(c1)C1(CCN(C(=O)CCC(=O)Nc3ccc(Br)cc3)CC1)OC(=O)N2 | – | – | – | – |
| 128 µg/mL (≈ 293 µM) | 256 µg/mL (≈ 585 µM) | > 512 µg/mL | 256 µg/mL (≈ 585 µM) | 11% | – | – | – | – | – | COc1ccc2c(c1)C1(CCN(C(=O)CCC(=O)Nc3ccc(C)cc3)CC1)OC(=O)N2 | – | – | – | – |
| 256 µg/mL (≈ 588 µM) | > 512 µg/mL | > 512 µg/mL | > 512 µg/mL | 42% | – | – | – | – | – | COc1ccc2c(c1)C1(CCN(C(=O)/C=C/C(=O)Nc3cccc(C)c3)CC1)OC(=O)N2 | – | – | – | – |
| 512 µg/mL (≈ 1170 µM) | > 512 µg/mL | 256 µg/mL (≈ 583 µM) | > 512 µg/mL | 16% | – | – | – | – | – | COc1ccc(NC(=O)CC(=O)N2CCC3(CC2)OC(=O)Nc2ccc(OC)cc23)cc1 | – | – | – | – |
| 64 µg/mL (≈ 142 µM) | 256 µg/mL (≈ 567 µM) | 128 µg/mL (≈ 284 µM) | 64 µg/mL (≈ 142 µM) | 82% | 210 µM | 6.67 µg/mL | 32 µg/mL | 128 µg/mL | 26 µg/mL | COc1ccc(NC(=O)/C=C/C(=O)N2CCC3(CC2)OC(=O)Nc2ccc(OC)cc23)cc1 | 1.1 | 1.125 | 3 | 0.625 |
| 512 µg/mL (≈ 1050 µM) | 256 µg/mL (≈ 524 µM) | 256 µg/mL (≈ 524 µM) | 256 µg/mL (≈ 524 µM) | 18% | – | – | – | – | – | COc1ccc2c(c1)C1(CCN(C(=O)CC(=O)Nc3ccc(Br)cc3)CC1)OC(=O)N2 | – | – | – | – |
| 512 µg/mL (≈ 1100 µM) | > 512 µg/mL | > 512 µg/mL | > 512 µg/mL | 13% | – | – | – | – | – | COc1ccc2c(c1)C1(CCN(C(=O)/C=C/C(=O)Nc3ccc([N+](=O)[O-])cc3)CC1)OC(=O)N2 | – | – | – | – |
| 256 µg/mL (≈ 512 µM) | 256 µg/mL (≈ 512 µM) | 128 µg/mL (≈ 256 µM) | 64 µg/mL (≈ 128 µM) | 40% | – | – | – | – | – | COc1ccc2c(c1)C1(CCN(C(=O)/C=C/C(=O)Nc3ccccc3Br)CC1)OC(=O)N2 | – | – | – | – |
| 16 µg/mL (≈ 35.1 µM) | 32 µg/mL (≈ 70.2 µM) | 32 µg/mL (≈ 70.2 µM) | 32 µg/mL (≈ 70.2 µM) | 36% | – | 16 µg/mL | 16 µg/mL | 13.3 µg/mL | 64 µg/mL | COc1ccc2c(c1)C1(CCN(C(=O)/C=C/C(=O)Nc3ccccc3Cl)CC1)OC(=O)N2 | 1.125 | 2 | 1.42 | 0.625 |
| 64 µg/mL (≈ 152 µM) | 64 µg/mL (≈ 152 µM) | 53.3 µg/mL (≈ 127 µM) | 53.3 µg/mL (≈ 127 µM) | 69% | 280 µM | 32 µg/mL | 16 µg/mL | 64 µg/mL | 26 µg/mL | COc1ccc2c(c1)C1(CCN(C(=O)/C=C/C(=O)Nc3ccccc3)CC1)OC(=O)N2 | 1 | 0.55 | 1.125 | 1.125 |
| 512 µg/mL (≈ 1100 µM) | 256 µg/mL (≈ 549 µM) | 256 µg/mL (≈ 549 µM) | 512 µg/mL (≈ 1100 µM) | 18% | – | – | – | – | – | COc1ccc2c(c1)C1(CCN(C(=O)/C=C/C(=O)Nc3ccccc3[N+](=O)[O-])CC1)OC(=O)N2 | – | – | – | – |
| 512 µg/mL (≈ 1140 µM) | > 512 µg/mL | > 512 µg/mL | 512 µg/mL (≈ 1140 µM) | 16% | – | – | – | – | – | COc1ccc2c(c1)C1(CCN(C(=O)/C=C/C(=O)Nc3cc(C)cc(C)c3)CC1)OC(=O)N2 | – | – | – | – |

— ChEMBL document CHEMBL5331050, “Spiro[benzoxazine-piperidin]-one derivatives as chitin synthase inhibitors and antifungal agents: Design, synthesis and biological evaluation” (Eur J Med Chem, 2022)
